The numbers were not newly measured in publication PMC9610285 (Pharmaceutics, 2022), which cites them from elsewhere.

This data set concerns MAO-B. On the set-up: method as in earlier work. As to conditions: main metabolite of rasagiline; cited from earlier work.

Regarding `NC1CCc2ccccc21` (stereo not shown) [S1-1-aminoindane], the MAO-B inhibition result was “not a MAO-B inhibitor”.
